The source made the active and inactive calls. No cut-off for these calls is given here.
How the values were obtained:
SR [1] = experiment: Down regulation of PYK2 in human SR cells at 0.1 to 1000 nM after 16 hrs by Western blot analysis; format: functional, cell-based; settings: dose 0.1-1000 nM
[2] = molecular target: T1, ALK tyrosine kinase receptor (Homo sapiens, UniProt Q9UM73); experiment: Induction of ALK degradation in human SR cells at 100 nM incubated with compound for 24 hrs followed by compound washout and measured upto 72 hrs by Western blot analysis; format: cell-based
SR [3] = experiment: Antiproliferative activity against human SR cells assessed as inhibition of cell growth at 10 nM preincubated for 5 days followed by compound washout and measured on day 7 and 9 by CCK8 assay; format: functional, cell-based; settings: time 5.0 day
EML4-ALK (Homo sapiens) = EML4-ALK (Homo sapiens) (UniProt Q9UM73+Q9HC35); experiment: Induction of EML4-ALK degradation in human […] at 0.1 to 50 nM by Western blot analysis; format: cell-based; settings: dose 0.1-50 nM
[4] = molecular target: Signal transducer and activator of transcription 3 (Homo sapiens) (UniProt P40763); experiment: Inhibition of STAT3 downstream signalling in human SR cells assessed as reduction in pSTAT3 level at 10 nM by Western blot analysis; format: cell-based
[5] = system: Epidermal growth factor receptor (Homo sapiens), P00533 [L858R,T790M]; experiment: Induction of EGFR L858R/T790M mutant degradation in human […] at 100 nM by Western blot analysis; format: cell-based
MDA-MB-231 [6] = experiment: Induction of apoptosis in human MDA-MB-231 cells at 100 nM after 72 hrs; format: functional, cell-based
Calu-1 = experiment: Inhibition of cell migration in human Calu-1 cells at 100 nM after 12 to 24 hrs by wound healing assay; format: functional, cell-based; settings: time lower […], time upper 24.0 hrs
A549 = experiment: Down regulation of RSK1 in human A549 cells at 1 to 1000 nM after 16 hrs by Western blot analysis; format: functional, cell-based; settings: dose 1-1000 nM
SR [7] = experiment: Down regulation of FER in human SR cells at 0.1 to 1000 nM after 16 hrs by Western blot analysis; format: functional, cell-based; settings: dose 0.1-1000 nM
[8] = molecular target: Protein-tyrosine kinase 2-beta (Homo sapiens) (UniProt Q14289); experiment: Induction of PYK2 degradation in human MDA-MB-231 cells at 10 nM after 1 to 2 hrs by Western blot analysis; format: cell-based; settings: time 1-2 hrs
[9] = molecular target: Focal adhesion kinase 1 (Homo sapiens) (UniProt Q05397); experiment: Induction of FAK degradation in human MDA-MB-231 cells at 10 nM after 1 to 2 hrs by Western blot analysis; format: cell-based; settings: time 1-2 hrs
MDA-MB-231 [10] = experiment: Down regulation of cyclin D1 protein expression in human MDA-MB-231 cells at 1 to 500 nM after 48 hrs by Western blot analysis; format: functional, cell-based; settings: dose 1-500 nM
[11] = molecular target: Leucine-rich repeat serine/threonine-protein kinase 2 (Homo sapiens) (UniProt Q5S007); experiment: Binding affinity to wild-type human partial length LRRK2 (H970 to E2527 residues) expressed in mammalian expression system assessed as residual binding level at 100 nM by Kinomescan method relative to control
[12] = molecular target: Cyclin-G-associated kinase (Homo sapiens) (UniProt O14976); experiment: Binding affinity to wild-type human partial length GAK (G13 to Y338 residues) expressed in bacterial expression system assessed as residual binding level at 100 nM by Kinomescan method relative to control
[13] = molecular target: Serine/threonine-protein kinase RIO1 (Homo sapiens) (UniProt Q9BRS2); experiment: Binding affinity to wild-type human full length RIOK1 (M1 to K568 residues) expressed in bacterial expression system assessed as residual binding level at 100 nM by Kinomescan method relative to control
[14] = molecular target: Ribosomal protein S6 kinase alpha-3 (Homo sapiens) (UniProt P51812); experiment: Binding affinity to wild-type human partial length N- terminal RSK2 kinase domain 1 (M1 to D394 residues) expressed in mammalian expression system assessed as residual binding level at 100 nM by Kinomescan method relative to control
[15] = molecular target: Serine/threonine-protein kinase 33 (Homo sapiens) (UniProt Q9BYT3); experiment: Binding affinity to wild-type human full length STK33 (M1 to L514 residues) expressed in bacterial expression system assessed as residual binding level at 100 nM by Kinomescan method relative to control
[16] = molecular target: Dual specificity protein kinase CLK1 (Homo sapiens) (UniProt P49759); experiment: Binding affinity to wild-type human full length CLK1 (M1 to I484 residues) expressed in bacterial expression system assessed as residual binding level at 100 nM by Kinomescan method relative to control
[17] = molecular target: Non-receptor tyrosine-protein kinase TNK1 (Homo sapiens) (UniProt Q13470); experiment: Binding affinity to wild-type human full length TNK1 (M1 to P661 residues) expressed in bacterial expression system assessed as residual binding level at 100 nM by Kinomescan method relative to control
[18] = molecular target: Tyrosine-protein kinase Fer (Homo sapiens) (UniProt P16591); experiment: Binding affinity to wild-type human partial length FER (S542 to T822 residues) expressed in bacterial expression system assessed as residual binding level at 100 nM by Kinomescan method relative to control
[19] = molecular target: T1, ALK tyrosine kinase receptor; experiment: Binding affinity to wild-type human partial length ALK (I1088 to E1409 residues) expressed in mammalian expression system assessed as residual binding level at 100 nM by Kinomescan method relative to control
[20] = system: Epidermal growth factor receptor (Homo sapiens), P00533 [T790M]; experiment: Binding affinity to human partial length EGFR T790M mutant (R669 to G1022 residues) expressed in mammalian expression system assessed as residual binding level at 100 nM by Kinomescan method relative to control
[21] = system: ALK tyrosine kinase receptor (Homo sapiens), Q9UM73 [L1196M]; experiment: Binding affinity to wild-type human partial length ALK L1196M mutant (I1088 to E1409 residues) expressed in mammalian expression system assessed as residual binding level at 100 nM by Kinomescan method relative to control
[22] = molecular target: Serine/threonine-protein kinase PLK4 (Homo sapiens) (UniProt O00444); experiment: Binding affinity to wild-type human partial length PLK4 (M1 to S273 residues) expressed in mammalian expression system assessed as residual binding level at 100 nM by Kinomescan method relative to control
[23] = molecular target: NUAK family SNF1-like kinase 2 (Homo sapiens) (UniProt Q9H093); experiment: Binding affinity to wild-type human partial length SNARK (P22 to A333 residues) expressed in mammalian expression system assessed as residual binding level at 100 nM by Kinomescan method relative to control
[24] = Metabolic stability in human liver microsomes preincubated for 10 mins followed by NADPH regenerating system addition and measured after 10 mins by LC-MS/MS analysis; format: ADME, Microsome; settings: time 20 min, read-out: Stability
[25] = Metabolic stability in Sprague-Dawley rat liver microsomes preincubated for 10 mins followed by NADPH regenerating system addition and measured after 10 mins by LC-MS/MS analysis; format: ADME, Microsome; settings: time 20 min, read-out: Stability
[26] = Metabolic stability in human liver microsomes assessed as half life preincubated for 10 mins followed by NADPH regenerating system addition and measured after 10 mins by LC-MS/MS analysis; format: ADME, Microsome
[27] = Toxicity in NU/NU mouse at 100 mg/kg; format: organism-based; settings: in vivo

T1 sequence (Q9UM73 19-1620 limits assumed): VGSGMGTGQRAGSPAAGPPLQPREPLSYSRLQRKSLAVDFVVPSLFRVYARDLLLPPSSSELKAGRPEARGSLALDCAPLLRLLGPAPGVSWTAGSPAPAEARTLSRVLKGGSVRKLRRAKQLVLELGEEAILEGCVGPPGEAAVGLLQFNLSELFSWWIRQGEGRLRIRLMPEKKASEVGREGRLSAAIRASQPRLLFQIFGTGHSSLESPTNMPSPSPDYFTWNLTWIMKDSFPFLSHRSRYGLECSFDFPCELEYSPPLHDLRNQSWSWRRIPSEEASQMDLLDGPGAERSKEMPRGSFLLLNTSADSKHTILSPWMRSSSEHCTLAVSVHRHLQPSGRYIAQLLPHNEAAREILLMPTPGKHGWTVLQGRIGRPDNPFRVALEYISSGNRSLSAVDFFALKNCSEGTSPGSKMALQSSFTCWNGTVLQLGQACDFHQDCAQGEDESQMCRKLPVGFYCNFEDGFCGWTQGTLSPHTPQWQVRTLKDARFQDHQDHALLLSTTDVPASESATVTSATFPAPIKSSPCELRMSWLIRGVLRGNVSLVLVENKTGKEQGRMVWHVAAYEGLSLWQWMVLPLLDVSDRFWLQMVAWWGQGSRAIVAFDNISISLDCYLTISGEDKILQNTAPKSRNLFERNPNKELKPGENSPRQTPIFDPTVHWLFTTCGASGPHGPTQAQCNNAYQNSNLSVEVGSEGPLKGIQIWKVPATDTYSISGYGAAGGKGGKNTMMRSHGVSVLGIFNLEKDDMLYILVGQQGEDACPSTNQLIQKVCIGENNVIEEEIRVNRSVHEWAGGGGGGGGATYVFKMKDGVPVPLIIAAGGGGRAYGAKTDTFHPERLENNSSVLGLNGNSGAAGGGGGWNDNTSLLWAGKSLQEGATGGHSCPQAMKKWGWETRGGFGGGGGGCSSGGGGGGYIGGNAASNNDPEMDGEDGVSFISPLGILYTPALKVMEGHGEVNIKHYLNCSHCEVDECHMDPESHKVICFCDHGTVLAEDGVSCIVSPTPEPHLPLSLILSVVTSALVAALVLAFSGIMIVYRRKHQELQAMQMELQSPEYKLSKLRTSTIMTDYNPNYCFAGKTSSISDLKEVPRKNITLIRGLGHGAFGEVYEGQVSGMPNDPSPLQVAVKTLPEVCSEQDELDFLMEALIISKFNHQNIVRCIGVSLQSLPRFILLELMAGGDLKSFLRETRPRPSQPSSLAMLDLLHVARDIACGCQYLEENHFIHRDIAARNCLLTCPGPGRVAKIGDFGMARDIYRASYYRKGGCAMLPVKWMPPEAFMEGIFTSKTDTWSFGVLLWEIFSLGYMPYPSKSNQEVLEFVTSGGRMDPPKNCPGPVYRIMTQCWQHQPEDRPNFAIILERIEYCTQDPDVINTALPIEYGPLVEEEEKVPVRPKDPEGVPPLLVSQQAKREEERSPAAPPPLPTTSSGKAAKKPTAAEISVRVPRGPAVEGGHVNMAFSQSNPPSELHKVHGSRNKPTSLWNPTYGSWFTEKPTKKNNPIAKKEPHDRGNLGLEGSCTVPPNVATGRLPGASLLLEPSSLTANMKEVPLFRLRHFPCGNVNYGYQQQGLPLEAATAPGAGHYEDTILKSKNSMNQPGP
ALK tyrosine kinase receptor (Homo sapiens), Q9UM73 [L1196M], sequence (Q9UM73 whole entry L1196M, looked up, the tested form may be a part): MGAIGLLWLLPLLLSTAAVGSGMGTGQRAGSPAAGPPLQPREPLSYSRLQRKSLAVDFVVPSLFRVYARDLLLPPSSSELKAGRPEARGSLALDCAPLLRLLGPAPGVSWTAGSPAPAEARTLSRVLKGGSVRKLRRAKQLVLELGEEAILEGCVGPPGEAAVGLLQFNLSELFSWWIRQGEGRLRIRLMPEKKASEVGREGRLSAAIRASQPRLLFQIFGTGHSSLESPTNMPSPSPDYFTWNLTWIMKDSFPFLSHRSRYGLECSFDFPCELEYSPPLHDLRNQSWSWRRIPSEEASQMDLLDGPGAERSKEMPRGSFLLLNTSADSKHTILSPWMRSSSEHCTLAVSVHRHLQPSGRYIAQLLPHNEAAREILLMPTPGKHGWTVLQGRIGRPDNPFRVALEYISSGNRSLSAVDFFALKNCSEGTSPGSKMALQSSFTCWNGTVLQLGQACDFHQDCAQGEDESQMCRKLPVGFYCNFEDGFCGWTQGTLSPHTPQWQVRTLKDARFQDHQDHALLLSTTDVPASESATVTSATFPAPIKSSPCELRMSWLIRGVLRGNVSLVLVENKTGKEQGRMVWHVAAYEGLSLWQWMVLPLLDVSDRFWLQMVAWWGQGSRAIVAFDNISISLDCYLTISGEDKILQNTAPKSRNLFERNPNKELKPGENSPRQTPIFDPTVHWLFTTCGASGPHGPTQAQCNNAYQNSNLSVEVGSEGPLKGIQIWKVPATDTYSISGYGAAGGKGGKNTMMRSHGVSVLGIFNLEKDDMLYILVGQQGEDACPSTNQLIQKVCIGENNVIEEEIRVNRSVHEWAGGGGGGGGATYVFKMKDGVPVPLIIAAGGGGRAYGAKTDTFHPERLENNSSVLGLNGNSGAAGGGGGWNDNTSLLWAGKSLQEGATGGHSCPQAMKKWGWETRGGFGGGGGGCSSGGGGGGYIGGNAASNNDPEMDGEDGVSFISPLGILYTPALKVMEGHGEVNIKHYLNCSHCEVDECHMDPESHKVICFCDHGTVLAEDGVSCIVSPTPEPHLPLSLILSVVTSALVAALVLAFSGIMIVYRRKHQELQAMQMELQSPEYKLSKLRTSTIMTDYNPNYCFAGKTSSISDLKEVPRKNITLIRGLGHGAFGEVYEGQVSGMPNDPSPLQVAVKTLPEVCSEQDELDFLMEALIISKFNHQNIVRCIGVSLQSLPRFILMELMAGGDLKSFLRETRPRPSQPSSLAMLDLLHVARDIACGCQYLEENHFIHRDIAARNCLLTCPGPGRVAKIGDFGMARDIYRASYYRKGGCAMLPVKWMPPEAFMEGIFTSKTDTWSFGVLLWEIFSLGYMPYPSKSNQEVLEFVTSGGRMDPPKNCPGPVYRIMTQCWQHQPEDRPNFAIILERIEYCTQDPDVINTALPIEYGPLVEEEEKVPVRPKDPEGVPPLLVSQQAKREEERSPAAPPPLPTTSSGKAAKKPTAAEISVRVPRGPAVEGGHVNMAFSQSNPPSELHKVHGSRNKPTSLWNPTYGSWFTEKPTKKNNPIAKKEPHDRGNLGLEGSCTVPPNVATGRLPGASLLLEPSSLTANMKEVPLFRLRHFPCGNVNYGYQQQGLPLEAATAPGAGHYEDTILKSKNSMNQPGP
Ribosomal protein S6 kinase alpha-3 (Homo sapiens), sequence (P51812 whole entry, the tested form may be a part): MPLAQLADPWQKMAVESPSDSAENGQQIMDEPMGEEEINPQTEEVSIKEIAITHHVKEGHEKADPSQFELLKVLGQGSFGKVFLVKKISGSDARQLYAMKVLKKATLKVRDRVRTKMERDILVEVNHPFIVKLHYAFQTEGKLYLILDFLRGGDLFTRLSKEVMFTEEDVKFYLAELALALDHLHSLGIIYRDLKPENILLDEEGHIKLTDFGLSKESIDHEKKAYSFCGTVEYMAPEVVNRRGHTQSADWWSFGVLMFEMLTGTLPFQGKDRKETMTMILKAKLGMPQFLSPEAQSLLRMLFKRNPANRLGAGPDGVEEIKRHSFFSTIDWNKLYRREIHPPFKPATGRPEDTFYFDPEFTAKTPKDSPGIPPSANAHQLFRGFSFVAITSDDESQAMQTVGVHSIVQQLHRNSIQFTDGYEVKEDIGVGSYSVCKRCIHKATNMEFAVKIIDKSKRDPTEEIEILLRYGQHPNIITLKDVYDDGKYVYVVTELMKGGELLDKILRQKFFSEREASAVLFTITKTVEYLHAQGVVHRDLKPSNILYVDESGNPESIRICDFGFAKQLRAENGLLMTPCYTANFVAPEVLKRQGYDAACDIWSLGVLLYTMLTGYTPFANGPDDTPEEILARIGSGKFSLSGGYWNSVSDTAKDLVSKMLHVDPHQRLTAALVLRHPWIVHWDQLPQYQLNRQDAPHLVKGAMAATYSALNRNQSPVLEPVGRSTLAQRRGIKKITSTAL
NUAK family SNF1-like kinase 2 (Homo sapiens), sequence (Q9H093 whole entry, the tested form may be a part): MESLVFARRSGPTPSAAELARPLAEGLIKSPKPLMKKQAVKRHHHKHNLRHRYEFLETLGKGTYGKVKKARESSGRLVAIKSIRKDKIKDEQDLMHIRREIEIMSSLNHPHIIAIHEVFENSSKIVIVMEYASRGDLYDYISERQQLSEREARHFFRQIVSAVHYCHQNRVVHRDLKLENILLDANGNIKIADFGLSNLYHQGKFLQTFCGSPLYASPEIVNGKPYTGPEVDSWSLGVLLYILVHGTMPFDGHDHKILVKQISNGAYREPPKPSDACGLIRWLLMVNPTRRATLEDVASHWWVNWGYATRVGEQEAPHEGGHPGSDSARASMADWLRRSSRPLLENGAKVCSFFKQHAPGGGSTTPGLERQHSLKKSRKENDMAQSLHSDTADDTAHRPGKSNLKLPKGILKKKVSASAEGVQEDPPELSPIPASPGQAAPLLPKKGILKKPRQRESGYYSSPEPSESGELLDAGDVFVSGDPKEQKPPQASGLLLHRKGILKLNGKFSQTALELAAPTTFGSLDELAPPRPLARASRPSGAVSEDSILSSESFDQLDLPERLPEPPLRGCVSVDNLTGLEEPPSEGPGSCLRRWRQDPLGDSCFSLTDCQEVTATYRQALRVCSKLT
Serine/threonine-protein kinase 33 (Homo sapiens), sequence (Q9BYT3 whole entry, looked up, the tested form may be a part): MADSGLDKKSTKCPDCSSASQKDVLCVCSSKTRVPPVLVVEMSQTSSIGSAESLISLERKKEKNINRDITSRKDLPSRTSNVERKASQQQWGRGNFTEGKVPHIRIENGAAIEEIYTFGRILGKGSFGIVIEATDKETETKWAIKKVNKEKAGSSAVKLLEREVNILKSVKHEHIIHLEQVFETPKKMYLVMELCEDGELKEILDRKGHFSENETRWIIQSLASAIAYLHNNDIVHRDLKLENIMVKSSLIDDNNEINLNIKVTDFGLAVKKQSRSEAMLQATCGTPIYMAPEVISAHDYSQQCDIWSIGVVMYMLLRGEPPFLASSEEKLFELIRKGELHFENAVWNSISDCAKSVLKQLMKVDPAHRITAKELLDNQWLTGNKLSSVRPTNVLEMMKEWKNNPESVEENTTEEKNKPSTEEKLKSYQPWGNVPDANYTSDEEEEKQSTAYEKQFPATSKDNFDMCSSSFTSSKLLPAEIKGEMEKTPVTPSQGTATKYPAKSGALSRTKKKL

COc1cc(N2CCC(N3CCN(C(=O)CNc4cccc5c4C(=O)N(C4CCC(=O)NC4=O)C5=O)CC3)CC2)ccc1Nc1ncc(Cl)c(Nc2ccccc2P(C)(C)=O)n1 (stereo not given)
Activity (SR [1]): Active
Activity [2]: Active
Activity (SR [3]): Active
Activity (EML4-ALK (Homo sapiens)): Active
inhibition [4]: Active
Activity [5]: Active
Activity (MDA-MB-231 [6]): inactive
inhibition (Calu-1): Active
Activity (A549): Active
Activity (SR [7]): Active
Activity [8]: Active
Activity [9]: Active
Activity (MDA-MB-231 [10]): Active
Activity [11]: 0%
Activity [12]: 1.4%
Activity [13]: 1.6%
Activity [14]: 2.1%
Activity [15]: 2.3%
Activity [16]: 3.8%
Activity [17]: 3.8%
Activity [18]: 4.1%
Activity [19]: 5.3%
Activity [20]: 5.7%
Activity [21]: 6.5%
Activity [22]: 8.3%
Activity [23]: 8.3%
microsomal CLint [24]: < 9.6 µL/min/mg
microsomal CLint [25]: < 9.6 µL/min/mg
half-life [26]: 4.65 h
Activity [27]: Non-Toxic
